# Results as given in patent EP0136745A2, “Benzoyl urea derivatives having anti-tumor activity” (DUPHAR INTERNATIONAL RESEARCH B.V, priority 1983, dated 1985).
# Tested on: B16 melanoma cells
# Experiment: Sensitivity of B16 melanoma cells, in vitro cell growth inhibition (Coulter Counter cell count)
# Format: cell-based
# Details: Mus musculus, dosage of 500 /ug/ml, aqueous suspension, incubation 20 hours at 37°C, cells counted 48 hours after beginning of incubation, inhibition of cell growth with respect to control
# Description: The anti-tumor activity was tested in an in vitro test. In this test the sensitivity of B16 melanoma cells to the new compounds according to the invention was determined.
# B16 melanoma cells grow as a "monolayer". The doubling time of said cells in a cell culture is 12-16 hours.
# On day O a quantity of 5 x 10^4 B 16 melanoma cells is provided in each cell culture dish.
# On day 1 the compounds to be tested are vortexed in the presence of glass-beads. The compound to be tested is then addei to the dishes comprising melanoma cells in the desired quantity. Incubation takes place in a CO2--incubator at 37°C for 20 hours. The incubation is terminated by removing the culture medium with therein the compound to be tested, after which the cells are washed twice and fresh medium is added.
# Forty-eight hours after the beginninq of the incubation the quantity of cells in each dish is measured by means of a microcell Coulter Counter. The results thus obtained are expressed by indicating the activity cf the compounds as 1+, 2+, 3+, 4+ or 5+, which has the following meaning: • 1+ : cel growth is inhibited 1- 20% with respect to control. • 2+ : cel growth is inhibited 20- 40% with respect to control. • 3+ : cel growth is inhibited 40- 60% with respect to control. • 4+ : cel growth is inhibited 60- 80% with respect to control. • 5+ : cel growth is inhibited 80-100% with respect to control.
# Various compounds according to the invention were tested in the above-described manner in a dosage of 500 /ug/ml in the form of an aqueous suspension.
row,SMILES,inhibition at 500 µg/mL [%]
1,CC(C)(C)c1cc(NC(=O)NC(=O)c2ccccc2Cl)cc(C(C)(C)C)c1O [Compound 37],80 to 100
2,CC(=O)Oc1ccc(Cl)c(C(=O)NC(=O)Nc2ccc(C(F)(F)F)cc2)c1Cl [Compound 5],80 to 100
3,CC(=O)Oc1c(Cl)cc(C(=O)NC(=O)Nc2ccc(Cl)cc2)cc1Cl [Compound 19],60 to 80
4,Cc1ccccc1C(=O)NC(=O)Nc1ccc(O)cc1 [Compound 36],60 to 80
5,CC(=O)Oc1cccc(Cl)c1C(=O)NC(=O)Nc1ccc(O)c(C(C)=O)c1 [Compound 46],80 to 100
6,O=C(NC(=S)Nc1cccc(O)c1)c1ccc(Cl)cc1Cl [Compound 53],80 to 100
7,CC(=O)Oc1cc(C(F)(F)F)ccc1NC(=O)NC(=O)c1c(F)cccc1F [Compound 25],80 to 100
8,CC(=O)Oc1ccccc1C(=O)NC(=O)Nc1cc(Cl)c(O)c(Cl)c1 [Compound 49],80 to 100
9,O=C(NC(=O)c1cc(I)cc(I)c1O)Nc1ccc(Cl)cc1 [Compound 12],80 to 100
10,CC(=O)Oc1ccc(C(=O)NC(=O)Nc2ccc(O)cc2)cc1Cl [Compound 48],60 to 80
11,O=C(NC(=O)c1c(Cl)cc(O)cc1Cl)Nc1ccc(Cl)c(Cl)c1 [Compound 21],60 to 80
12,CC(=O)Oc1cccc(Cl)c1C(=O)NC(=O)Nc1ccc(Cl)cc1 [Compound 7],80 to 100
13,O=C(NC(=O)c1c(Cl)ccc(O)c1Cl)Nc1ccc(C(F)(F)F)cc1 [Compound 4],80 to 100
14,O=C(NC(=O)c1cc(Cl)c(O)c(Cl)c1)Nc1ccc(Cl)cc1 [Compound 18],60 to 80
15,CSc1cccc(Cl)c1C(=S)NC(=S)Nc1ccc(Cl)cc1 [Compound 52],80 to 100
16,CC(=O)Oc1ccc(C)cc1NC(=O)NC(=O)c1c(Cl)cccc1OC(C)=O [Compound 43],80 to 100
17,CC(=O)Oc1cc(OC(F)(F)F)ccc1NC(=O)NC(=O)c1ccccc1Cl [Compound 30],40 to 60
18,CC(=O)Oc1cccc(Cl)c1C(=O)NC(=O)Nc1ccc(OC2CC(C)CCC2C(C)C)cc1 (stereo not drawn) [Compound 15],60 to 80
19,CC(=O)Oc1cccc(Cl)c1C(=O)NC(=O)Nc1ccc(C(=O)N2CCCCC2)cc1 [Compound 16],80 to 100

row,SMILES,inhibition at 500 µg/mL [%]
1,O=C(NC(=O)c1ccccc1O)Nc1ccc([N+](=O)[O-])cc1Cl [Compound 10],60 to 80
2,O=C(NC(=O)c1c(Cl)cccc1Cl)Nc1cccc(OC(=O)Nc2ccccc2)c1 [Compound 33],80 to 100
3,CC(=O)Oc1ccc(C(=O)NC(=O)Nc2ccc(O)c(C(F)(F)F)c2)cc1Cl [Compound 56],40 to 60
4,O=C(NC(=O)c1cc([N+](=O)[O-])ccc1O)Nc1ccc(Cl)cc1 [Compound 9],60 to 80
5,O=C(NC(=O)c1c(F)cccc1F)Nc1cc(Cl)c(C(=O)c2ccc(Cl)cc2)c(Cl)c1 [Compound 55],40 to 60
6,CCCCOC(=O)c1ccc(NC(=O)NC(=O)c2c(Cl)cccc2OC(C)=O)cc1O [Compound 44],60 to 80
7,"O=C(NC(=O)c1ccccc1OCc1ccccc1)Nc1ccc(Cl)cc1 [Compound 54, 1-(2-benzyloxybenzoyl)-3-(4-chlorophenyl)urea]",20 to 40
8,O=C(NC(=O)c1cc(Cl)ccc1O)Nc1ccc([N+](=O)[O-])cc1Cl [Compound 20],40 to 60
9,CNC(=O)Oc1ccccc1NC(=O)NC(=O)c1c(Cl)cccc1Cl [Compound 32],60 to 80
10,CC(=O)Oc1cc(NC(=O)NC(=O)c2c(Cl)cccc2OC(C)=O)ccc1Cl [Compound 39],80 to 100
11,Cc1cc(Cl)ccc1NC(=O)NC(=O)c1c(O)cccc1O [Compound 13],60 to 80
12,CC(=O)Oc1cccc(Cl)c1C(=O)NC(=O)Nc1ccc([N+](=O)[O-])cc1O [Compound 42],80 to 100
13,CC(=O)Oc1cc(C(F)(F)F)ccc1NC(=O)NC(=O)c1ccccc1Cl [Compound 29],40 to 60
14,O=C(NC(=O)c1ccccc1Cl)Nc1ccc(OC(=O)Cc2ccc(Cl)cc2)c(Cl)c1 [Compound 34],40 to 60
15,O=C(NC(=O)c1ccccc1Cl)Nc1ccc(O)cc1OC(F)(F)F [Compound 28],80 to 100
16,O=C(NC(=O)c1c(O)cccc1Cl)Nc1ccc(Cl)c(O)c1 [Compound 38],60 to 80
17,CC(=O)Oc1cccc(Cl)c1C(=O)NC(=O)Nc1ccc(OC(F)(F)C(F)F)cc1 [Compound 14],80 to 100
18,O=C(NC(=O)c1ccccc1OC(=O)c1ccccc1)Nc1ccc(Cl)cc1 [Compound 17],60 to 80
19,CC(=O)Oc1cccc(Cl)c1C(=O)NC(=O)Nc1ccc(C(=O)c2ccccc2)cc1 [Compound 23],80 to 100

row,SMILES,inhibition at 500 µg/mL [%]
1,CC(=O)Oc1cccc(Cl)c1C(=O)NC(=O)Nc1ccc(O)cc1 [Compound 40],60 to 80
2,O=C(NC(=O)c1c(F)cccc1F)Nc1ccc(O)c(C(F)(F)F)c1 [Compound 26],80 to 100
3,CC(=O)Oc1ccc(NC(=O)NC(=O)c2cc(C(C)(C)C)c(O)c(C(C)(C)C)c2)cc1 [Compound 47],60 to 80
4,CC(=O)Oc1ccc(Cl)c(C(=O)NC(=O)Nc2ccc(Cl)cc2)c1Cl [Compound 2],60 to 80
5,CCC(=O)Oc1cccc(Cl)c1C(=O)NC(=O)Nc1ccc(Cl)cc1 [Compound 8],60 to 80
6,CC(=O)Oc1ccccc1NC(=S)NC(=O)c1ccccc1 [Compound 51],60 to 80
7,O=C(NC(=O)c1c(O)cccc1Cl)Nc1ccc(Cl)cc1 [Compound 6],60 to 80
8,Cc1cc(Cl)ccc1NC(=O)NC(=O)c1c(OCc2ccccc2)cccc1OCc1ccccc1 [Compound 22],40 to 60
9,O=C(NC(=O)c1c(Cl)ccc(O)c1Cl)Nc1ccc(Cl)cc1 [Compound 1],80 to 100
10,CCOC(=O)COc1ccc(NC(=O)NC(=O)c2c(F)cccc2F)cc1C(F)(F)F [Compound 35],60 to 80
11,O=C(NC(=O)c1ccccc1Cl)Nc1ccc(O)c(C(F)(F)F)c1 [Compound 27],40 to 60
12,O=C(NC(=O)c1c(O)cccc1O)Nc1ccc(Cl)cc1 [Compound 11],80 to 100
13,CC(=O)Oc1cc(Cl)ccc1NC(=O)NC(=O)c1c(F)cccc1F [Compound 24],80 to 100
14,O=C(NC(=O)c1c(F)cccc1F)Nc1ccc(Oc2ccc(Cl)cc2)c(Cl)c1 [Compound 31],40 to 60
15,CC(=O)Oc1cccc(Cl)c1C(=O)NC(=O)Nc1cc(C)ccc1O [Compound 41],80 to 100
16,O=C(NC(=O)c1c(F)cccc1F)Nc1ccccc1S [Compound 50],80 to 100
17,"CC(=O)Oc1cccc(Cl)c1C(=O)NC(=O)Nc1cc(Br)cc(Br)c1O [Compound 45, 1-(2-acetoxy-6-chlorobenzoyl)-3-(2-hydroxy-3,5-dibromophenyl)urea]",80 to 100
18,O=C(NC(=O)c1c(Cl)ccc(OCc2ccccc2)c1Cl)Nc1ccc(Cl)cc1 [Compound 3],40 to 60
19,O=C(NC(=O)c1c(F)cccc1F)Nc1ccc(OC(=O)Oc2ccc(Cl)cc2)cc1 [Compound 57],20 to 40
